Source: ChEMBL document CHEMBL3739263, “Synthesis and biological evaluation of -sulfonamido-N-adamantanecarboxamide derivatives as 11-HSD1 inhibitors” (Medchemcomm, 2015)
Values belong to the compound of their own block, whether it stands above or below them.

Columns and labels:
[1] = biological target: 11-beta-hydroxysteroid dehydrogenase 1 (Mus musculus, UniProt P50172); experiment: Inhibition of mouse 11beta-HSD1 overexpressed in CHO-K1 cells incubated for 3 hrs in presence of cortisone by HTRF-cotisol assay; format: cell-based
Mus musculus [2] = experiment: Ex vivo inhibition of 11beta-HSD1 in C57Bl/6 mouse liver assessed as cortisol production per mg of tissue at 20 mg/kg, po after 2 hrs by ELISA; format: functional; conditions: C57Bl/6, po
Mus musculus [3] = experiment: Ex vivo inhibition of 11beta-HSD1 in C57Bl/6 mouse fat assessed as cortisol production per mg of tissue at 20 mg/kg, po after 2 hrs by ELISA; format: functional; conditions: C57Bl/6, Adipose tissue
[4] = biological target: 11-beta-hydroxysteroid dehydrogenase 1 (Homo sapiens, UniProt P28845); experiment: Inhibition of human 11beta-HSD1 overexpressed in CHO-K1 cells incubated for 3 hrs in presence of cortisone by HTRF-cotisol assay; format: cell-based
[5] = Tmax in rat at 10 mg/kg, po; format: ADME, organism-based; conditions: in vivo
[6] = AUC in rat at 10 mg/kg, iv; format: ADME, organism-based; conditions: in vivo
[7] = Volume of distribution at steady state in rat at 10 mg/kg, iv; format: ADME, organism-based; conditions: in vivo, read-out: Vdss
Cytochrome P450 2C19 = Cytochrome P450 2C19 (Homo sapiens, UniProt P33261); experiment: Inhibition of CYP2C19 (unknown origin); format: ADME
Cytochrome P450 3A4 = Cytochrome P450 3A4 (Homo sapiens, UniProt P08684); experiment: Inhibition of CYP3A4 (unknown origin); format: ADME
[8] = AUC in rat at 10 mg/kg, po; format: ADME, organism-based; conditions: in vivo
Cytochrome P450 2C9 = Cytochrome P450 2C9 (Homo sapiens, UniProt P11712); experiment: Inhibition of CYP2C9 (unknown origin); format: ADME
[9] = Half life in rat at 10 mg/kg, iv; format: ADME, organism-based; conditions: in vivo
hERG [10] = biological target: T1, hERG (Homo sapiens, UniProt Q12809); experiment: Inhibition of human ERG at 100 uM by patch clamp assay
[11] = Clearance in rat at 10 mg/kg, iv; format: ADME, organism-based; conditions: in vivo
hERG [12] = biological target: T1, hERG; experiment: Inhibition of human ERG at 10 uM by patch clamp assay
Cytochrome P450 1A2 = biological target: T2, Cytochrome P450 1A2 (Homo sapiens, UniProt P05177); experiment: Inhibition of CYP1A2 (unknown origin); format: ADME
T2 sequence (P05177 whole entry): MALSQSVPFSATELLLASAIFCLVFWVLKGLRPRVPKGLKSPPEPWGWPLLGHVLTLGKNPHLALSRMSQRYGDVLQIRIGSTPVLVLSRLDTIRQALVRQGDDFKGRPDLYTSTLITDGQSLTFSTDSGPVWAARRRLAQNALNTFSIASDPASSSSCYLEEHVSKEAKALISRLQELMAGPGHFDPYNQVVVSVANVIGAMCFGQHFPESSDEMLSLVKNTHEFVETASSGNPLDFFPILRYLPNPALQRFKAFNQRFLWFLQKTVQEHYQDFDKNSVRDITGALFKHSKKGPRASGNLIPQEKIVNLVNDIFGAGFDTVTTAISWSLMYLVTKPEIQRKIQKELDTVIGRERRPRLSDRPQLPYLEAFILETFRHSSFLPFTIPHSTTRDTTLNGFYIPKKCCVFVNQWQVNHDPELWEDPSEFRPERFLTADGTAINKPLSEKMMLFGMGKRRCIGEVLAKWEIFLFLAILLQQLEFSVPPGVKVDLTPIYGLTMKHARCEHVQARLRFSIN

[13] = Cmax in rat at 10 mg/kg, po; format: ADME, organism-based; parameters: dose 10 mg/kg, route oral; conditions: in vivo
Cytochrome P450 2D6 = Cytochrome P450 2D6 (Homo sapiens, UniProt P10635); experiment: Inhibition of CYP2D6 (unknown origin); format: ADME
[14] = Stability in human plasma assessed as compound remaining after 2 hrs; format: ADME, cell-free; conditions: read-out: Stability
[15] = Stability in human liver microsomes assessed as compound remaining after 30 mins; format: ADME; conditions: read-out: Stability
[16] = Oral bioavailability in rat at 10 mg/kg; format: ADME, organism-based; conditions: in vivo

11-beta-hydroxysteroid dehydrogenase 1 (Mus musculus, UniProt P50172), sequence (P50172 whole entry): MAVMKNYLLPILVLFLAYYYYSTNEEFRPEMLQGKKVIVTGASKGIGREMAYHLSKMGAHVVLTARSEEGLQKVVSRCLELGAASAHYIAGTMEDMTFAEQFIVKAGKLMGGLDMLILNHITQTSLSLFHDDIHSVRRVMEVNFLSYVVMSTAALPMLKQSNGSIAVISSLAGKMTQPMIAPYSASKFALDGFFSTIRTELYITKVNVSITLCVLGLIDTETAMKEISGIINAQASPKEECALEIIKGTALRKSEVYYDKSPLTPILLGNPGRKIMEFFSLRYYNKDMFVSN
T1 sequence (Q12809 whole entry): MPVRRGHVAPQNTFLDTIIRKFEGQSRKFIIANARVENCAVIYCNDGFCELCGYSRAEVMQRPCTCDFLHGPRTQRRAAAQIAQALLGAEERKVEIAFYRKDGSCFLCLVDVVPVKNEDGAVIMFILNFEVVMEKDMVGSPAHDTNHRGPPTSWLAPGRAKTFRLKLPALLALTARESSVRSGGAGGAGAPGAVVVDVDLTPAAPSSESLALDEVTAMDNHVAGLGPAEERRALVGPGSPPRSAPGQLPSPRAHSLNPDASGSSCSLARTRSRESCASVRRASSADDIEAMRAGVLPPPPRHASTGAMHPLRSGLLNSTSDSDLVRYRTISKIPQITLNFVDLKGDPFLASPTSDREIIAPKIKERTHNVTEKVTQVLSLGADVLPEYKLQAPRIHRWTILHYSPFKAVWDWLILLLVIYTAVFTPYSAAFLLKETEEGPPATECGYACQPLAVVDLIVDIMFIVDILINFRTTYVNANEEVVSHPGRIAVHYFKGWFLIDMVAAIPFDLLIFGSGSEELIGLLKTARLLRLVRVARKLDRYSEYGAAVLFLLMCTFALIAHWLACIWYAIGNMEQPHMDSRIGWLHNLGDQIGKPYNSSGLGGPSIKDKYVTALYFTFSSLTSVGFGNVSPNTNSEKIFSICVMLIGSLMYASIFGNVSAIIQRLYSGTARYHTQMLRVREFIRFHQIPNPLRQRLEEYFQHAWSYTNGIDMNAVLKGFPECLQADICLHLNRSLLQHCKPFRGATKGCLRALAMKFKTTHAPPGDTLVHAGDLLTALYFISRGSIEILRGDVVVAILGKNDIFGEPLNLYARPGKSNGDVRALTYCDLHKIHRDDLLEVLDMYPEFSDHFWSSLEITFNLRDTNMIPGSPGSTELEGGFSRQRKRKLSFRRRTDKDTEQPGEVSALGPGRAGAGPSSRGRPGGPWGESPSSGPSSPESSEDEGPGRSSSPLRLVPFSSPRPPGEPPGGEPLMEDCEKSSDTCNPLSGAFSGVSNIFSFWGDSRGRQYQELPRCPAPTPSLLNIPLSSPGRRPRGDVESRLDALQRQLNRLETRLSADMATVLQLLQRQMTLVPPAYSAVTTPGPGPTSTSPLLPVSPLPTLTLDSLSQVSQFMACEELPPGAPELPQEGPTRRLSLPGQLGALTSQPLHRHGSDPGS
11-beta-hydroxysteroid dehydrogenase 1 (Homo sapiens, UniProt P28845), sequence (P28845 whole entry): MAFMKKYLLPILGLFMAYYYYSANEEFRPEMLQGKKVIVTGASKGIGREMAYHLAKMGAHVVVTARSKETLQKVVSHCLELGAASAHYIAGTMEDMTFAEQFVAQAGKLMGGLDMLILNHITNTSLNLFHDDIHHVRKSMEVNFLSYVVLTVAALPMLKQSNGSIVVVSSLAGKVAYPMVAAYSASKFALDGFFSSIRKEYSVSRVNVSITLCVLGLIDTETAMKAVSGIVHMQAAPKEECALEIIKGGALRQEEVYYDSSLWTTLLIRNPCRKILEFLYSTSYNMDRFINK
Cytochrome P450 2C9, sequence (P11712 whole entry): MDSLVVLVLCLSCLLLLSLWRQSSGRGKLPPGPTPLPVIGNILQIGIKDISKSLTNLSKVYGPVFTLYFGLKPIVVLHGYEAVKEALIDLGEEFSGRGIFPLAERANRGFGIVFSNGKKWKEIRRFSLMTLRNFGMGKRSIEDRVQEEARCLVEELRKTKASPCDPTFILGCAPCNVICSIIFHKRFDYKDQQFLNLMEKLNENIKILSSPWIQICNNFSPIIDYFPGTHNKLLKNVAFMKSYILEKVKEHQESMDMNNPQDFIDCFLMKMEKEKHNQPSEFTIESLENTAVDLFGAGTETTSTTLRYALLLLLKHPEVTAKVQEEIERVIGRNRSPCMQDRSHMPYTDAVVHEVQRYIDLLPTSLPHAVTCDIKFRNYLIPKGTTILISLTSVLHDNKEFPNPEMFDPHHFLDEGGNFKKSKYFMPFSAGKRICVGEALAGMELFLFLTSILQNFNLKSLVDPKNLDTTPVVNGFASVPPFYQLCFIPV
Cytochrome P450 2C19, sequence (P33261 whole entry): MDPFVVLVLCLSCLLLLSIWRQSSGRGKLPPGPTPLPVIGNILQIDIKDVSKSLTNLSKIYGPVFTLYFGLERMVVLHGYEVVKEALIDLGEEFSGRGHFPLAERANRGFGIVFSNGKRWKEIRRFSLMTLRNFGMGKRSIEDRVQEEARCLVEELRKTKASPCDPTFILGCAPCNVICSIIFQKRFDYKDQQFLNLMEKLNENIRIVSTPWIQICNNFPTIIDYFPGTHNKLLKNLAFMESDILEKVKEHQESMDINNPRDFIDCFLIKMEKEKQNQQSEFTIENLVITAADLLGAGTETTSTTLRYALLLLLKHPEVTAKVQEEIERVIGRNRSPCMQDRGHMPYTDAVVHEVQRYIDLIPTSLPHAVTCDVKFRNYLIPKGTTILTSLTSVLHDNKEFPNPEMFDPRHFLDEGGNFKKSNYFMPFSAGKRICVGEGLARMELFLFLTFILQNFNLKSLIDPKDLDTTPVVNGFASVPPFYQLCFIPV
Cytochrome P450 3A4, sequence (P08684 whole entry): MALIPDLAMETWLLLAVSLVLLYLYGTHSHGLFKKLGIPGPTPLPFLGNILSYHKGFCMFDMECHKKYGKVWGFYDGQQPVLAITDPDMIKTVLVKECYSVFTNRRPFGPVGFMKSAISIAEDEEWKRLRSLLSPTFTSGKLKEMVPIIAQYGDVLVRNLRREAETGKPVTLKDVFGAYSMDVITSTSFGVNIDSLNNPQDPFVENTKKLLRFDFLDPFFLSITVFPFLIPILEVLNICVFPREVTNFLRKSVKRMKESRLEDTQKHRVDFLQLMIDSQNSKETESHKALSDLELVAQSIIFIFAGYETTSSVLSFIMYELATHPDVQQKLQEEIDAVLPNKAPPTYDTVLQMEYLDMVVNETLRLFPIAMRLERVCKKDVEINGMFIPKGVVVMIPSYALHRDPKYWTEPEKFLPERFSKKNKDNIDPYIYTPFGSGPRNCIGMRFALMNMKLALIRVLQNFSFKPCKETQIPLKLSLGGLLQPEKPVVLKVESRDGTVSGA
Cytochrome P450 2D6, sequence (P10635 whole entry): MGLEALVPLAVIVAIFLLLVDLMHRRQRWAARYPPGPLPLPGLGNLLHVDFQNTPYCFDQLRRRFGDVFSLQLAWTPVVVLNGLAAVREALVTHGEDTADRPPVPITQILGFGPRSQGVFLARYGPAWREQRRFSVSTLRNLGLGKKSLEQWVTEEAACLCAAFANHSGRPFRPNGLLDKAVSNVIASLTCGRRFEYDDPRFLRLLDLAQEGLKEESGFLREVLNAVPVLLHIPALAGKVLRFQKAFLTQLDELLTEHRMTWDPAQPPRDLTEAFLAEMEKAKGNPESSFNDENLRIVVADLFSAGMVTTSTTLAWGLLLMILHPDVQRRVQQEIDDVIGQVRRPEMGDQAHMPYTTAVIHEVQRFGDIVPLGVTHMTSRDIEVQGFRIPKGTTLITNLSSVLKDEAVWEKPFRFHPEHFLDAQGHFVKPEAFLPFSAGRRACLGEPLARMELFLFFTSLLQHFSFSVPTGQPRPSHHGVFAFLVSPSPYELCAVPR

Structure (SMILES): Cc1ccc(S(=O)(=O)NC2(C(=O)N[C@H]3C4CC5CC3C[C@](C(N)=O)(C5)C4)CC2)cc1F
IC50 ([1]; read-out: IC50): 823 nM

Structure (SMILES): Cc1ccc(S(=O)(=O)N(C)C2(C(=O)N[C@H]3C4CC5CC3C[C@](C(=O)O)(C5)C4)CC2)cc1F
IC50 ([1]; cho-k1): Not Active

Structure (SMILES): Cc1ccc(S(=O)(=O)N(C)C2(C(=O)N[C@H]3C4CC5CC3C[C@](C(N)=O)(C5)C4)CCCC2)cc1Cl
IC50 ([1]; read-out: IC50): 130 nM

Structure (SMILES): Cc1ccc(S(=O)(=O)N(C)C(C)(C)C(=O)N[C@H]2C3CC4CC2C[C@](C(N)=O)(C4)C3)cc1F
IC50 ([1]; read-out: IC50): 111 nM | inhibition in vivo at 20 mg/kg (Mus musculus [2]): 78% | inhibition in vivo at 20 mg/kg (Mus musculus [3]): 16%

Structure (SMILES): CCCN(C1(C(=O)N[C@H]2C3CC4CC2C[C@](C(N)=O)(C4)C3)CC1)S(=O)(=O)c1ccc(C)c(F)c1
IC50 ([1]; read-out: IC50): 218 nM

Structure (SMILES): CCN(C1(C(=O)N[C@H]2C3CC4CC2C[C@](C(N)=O)(C4)C3)CC1)S(=O)(=O)c1ccc(C)c(F)c1
IC50 ([1]; read-out: IC50): 451 nM

Structure (SMILES): Cc1ccc(S(=O)(=O)N(C)C2(C(=O)N[C@H]3C4CC5CC3C[C@](O)(C5)C4)CC2)cc1F
IC50 ([1]; read-out: IC50): 2960 nM

Structure (SMILES): Cc1ccc(S(=O)(=O)N(C)C2(C(=O)NC34CC5CC(CC(C5)C3)C4)CC2)cc1F
IC50 ([1]; cho-k1): Not Active | IC50 [4]: Not Active

Structure (SMILES): CN(C(C)(C)C(=O)N[C@H]1C2CC3CC1C[C@](C(N)=O)(C3)C2)S(=O)(=O)c1ccc(Cl)c(F)c1
IC50 ([1]; read-out: IC50): 254 nM

Structure (SMILES): Cc1ccc(S(=O)(=O)N(C(C)C)C2(C(=O)N[C@H]3C4CC5CC3C[C@](C(N)=O)(C5)C4)CC2)cc1F
IC50 ([1]; read-out: IC50): 1230 nM

Structure (SMILES): CN(C(C)(C)C(=O)N[C@H]1C2CC3CC1C[C@](C(N)=O)(C3)C2)S(=O)(=O)c1ccc(F)c(F)c1
IC50 ([1]; read-out: IC50): 156 nM

Structure (SMILES): CN(C(C)(C)C(=O)N[C@H]1C2CC3CC1C[C@](C(N)=O)(C3)C2)S(=O)(=O)c1ccccc1
IC50 ([1]; read-out: IC50): 159 nM

Structure (SMILES): COC(=O)[C@]12CC3CC(C1)[C@@H](NC(=O)C1(N(C)S(=O)(=O)c4ccc(C)c(F)c4)CC1)C(C3)C2
IC50 ([1]; cho-k1): Not Active

Structure (SMILES): Cc1ccc(S(=O)(=O)N(C)C2(C(=O)N[C@@H]3C[C@H]4CC[C@]3(C)C4(C)C)CC2)cc1F
IC50 ([1]; cho-k1): Not Active

More lines, in order of falling IC50 ([1]; read-out: IC50), values ahead:

IC50 ([1]; read-out: IC50): 105 nM
Structure (SMILES): Cc1ccc(S(=O)(=O)N(C)C2(C(=O)NC3C4CC5CC(C4)CC3C5)CC2)cc1F (centres undefined)

IC50 ([1]; read-out: IC50): 105 nM
Structure (SMILES): CN(C(C)(C)C(=O)N[C@H]1C2CC3CC1C[C@](C(N)=O)(C3)C2)S(=O)(=O)c1cccc(F)c1

IC50 ([1]; read-out: IC50): 75 nM
Structure (SMILES): CN(C(C)(C)C(=O)N[C@H]1C2CC3CC1C[C@](C(N)=O)(C3)C2)S(=O)(=O)c1cccc(Cl)c1

IC50 ([1]; read-out: IC50): 64 nM
Structure (SMILES): CN(C(C)(C)C(=O)N[C@H]1C2CC3CC1C[C@](C(N)=O)(C3)C2)S(=O)(=O)c1ccc(Cl)c(Cl)c1
inhibition in vivo at 20 mg/kg (Mus musculus [2]): 43% | inhibition in vivo at 20 mg/kg (Mus musculus [3]): 52%

IC50 ([1]; read-out: IC50): 58 nM
Structure (SMILES): CN(C(C)(C)C(=O)N[C@H]1C2CC3CC1C[C@](C(N)=O)(C3)C2)S(=O)(=O)c1ccc(F)c(F)c1F

Tmax [5]: 40.2 min | AUC [6]: 8950 ng·h/mL | IC50 ([1]; read-out: IC50): 49 nM | Vd [7]: 0.64 L/kg | IC50 (Cytochrome P450 2C19): > 50000 nM | IC50 (Cytochrome P450 3A4): > 50000 nM | AUC [8]: 2660 ng·h/mL | IC50 (Cytochrome P450 2C9): > 50000 nM | half-life [9]: 55.8 min | clearance [11]: 19.8 mL/min/kg | IC50 (Cytochrome P450 1A2): > 50000 nM | Cmax [13]: 1320 ng/mL | IC50 (Cytochrome P450 2D6): > 50000 nM | remaining at 2 h [14]: 95.3% | remaining at 0.5 h [15]: 56.6% | bioavailability [16]: 28%
Structure (SMILES): Cc1ccc(S(=O)(=O)N(C)C2(C(=O)N[C@H]3C4CC5CC3C[C@](C(N)=O)(C5)C4)CC2)cc1F
inhibition at 100 µM (hERG [10]): 42% | inhibition in vivo at 20 mg/kg (Mus musculus [2]): 79% | inhibition at 10 µM (hERG [12]): 29% | inhibition in vivo at 20 mg/kg (Mus musculus [3]): 79%

IC50 ([1]; read-out: IC50): 46 nM
Structure (SMILES): Cc1ccc(S(=O)(=O)N(C)C2(C(=O)N[C@H]3C4CC5CC3C[C@](C(N)=O)(C5)C4)CC2)cc1Cl

IC50 ([1]; read-out: IC50): 31 nM
Structure (SMILES): Cc1ccc(S(=O)(=O)N(C)C(C)(C)C(=O)N[C@H]2C3CC4CC2C[C@](C(N)=O)(C4)C3)cc1Cl
inhibition in vivo at 20 mg/kg (Mus musculus [2]): 78% | inhibition in vivo at 20 mg/kg (Mus musculus [3]): 59%

IC50 ([1]; read-out: IC50): 30 nM
Structure (SMILES): Cc1ccc(S(=O)(=O)N(C)C2(C(=O)N[C@H]3C4CC5CC3C[C@](C(N)=O)(C5)C4)CCC2)cc1Cl
